Data reported in article PMC10508631, “Development of an antibody fused with an antimicrobial peptide targeting Pseudomonas aeruginosa: A new approach to prevent and treat bacterial infections” (PLOS Pathogens, 2023).
Converted amounts (≈) assume the structure as drawn. Where a SMILES comes first, the peptide text is derived from it.

Tests used:
[1] = system: 293T human cell line; assay: Mammalian cell cytotoxicity (CellTiter Glo); type: cell-based; settings: for Cytotox CC50: 293T cells, 10,000 cells/well, three days, 37°C, CellTiter Glo luminescence
Method: On day one, cells from an established 293T human cell line were seeded onto 96-well flat-bottom white plates (10,000 293T cells/well). On day two, dilution plates were prepared by diluting compound in cell growth medium to two times the final starting concentration and then carrying out serial two-fold dilutions across the plate. Medium from the cell growth assay plates was then aspirated, and 50 μl from the compound dilution plates were transferred to the assay plates. Fifty microliters of fresh media were then added to all the wells. The plates were incubated at 37°C, 5% CO2 for three days. […]. Media from the assay plates was aspirated, and 100 μl of CellTiter Glo/growth media mix was added to all wells. After five minutes, luminescence was read, and% inhibition vs. compound concentration was plotted.

[2] = system: S. aureus 29213; settings: for MIC S. aureus 29213: CLSI microdilution, 2-fold dilutions, ~5 x 10^5 cells/ml, 37°C, 18 hours, MIC = at least 80% growth inhibition
Method: (§1) MICs and a killing assay were performed in this study. MICs were determined according to CLSI guidelines, using 2-fold serial compound dilutions in 96-well microtiter plates. Briefly, compounds were diluted in water across a mother plate and then 2 μl were stamped to assay plates—one plate for each strain to be tested. Bacterial strains were sub-cultured overnight on agar plates at 37°C. […] These concentrated cultures were diluted 1:200 in growth media to approximately 5 x 10^5 cells/ml. All assay plates received 100 μL diluted culture per well. All plates were placed at 37°C overnight. […] Wells at and above the MIC should appear devoid of growth when visualized.

[3] = system: E. coli ATCC 25922; settings: for MIC E. coli ATCC 25922: CLSI microdilution, 2-fold dilutions, ~5 x 10^5 cells/ml, 37°C, 18 hours, MIC = at least 80% growth inhibition
Method: as §1

[4] = system: P. aeruginosa ATCC 39324; type: cell-based, Pseudomonas aeruginosa; settings: for MIC P. aeruginosa ATCC 39324: CLSI microdilution, 2-fold dilutions, ~5 x 10^5 cells/ml, 37°C, 18 hours, MIC = at least 80% growth inhibition
Method: (§2) All plates were placed at 37°C overnight.

[5] = system: P. aeruginosa ATCC 27853; type: cell-based, Pseudomonas aeruginosa; settings: for MIC P. aeruginosa ATCC 27853: CLSI microdilution, 2-fold dilutions, ~5 x 10^5 cells/ml, 37°C, 18 hours, MIC = lowest concentration inhibiting growth by at least 80%
Method: as §2

[6] = MIC in human serum; type: cell-based; settings: ratio to MIC, strain not given, NA = no activity in human serum
[7] = system: red blood cells (defibrinated sheep's blood); assay: RBC hemolysis assay; type: cell-based; settings: RBCs
Method: Test substances were diluted 2-fold in water across a 96-well polypropylene mother plate, leaving one no-compound control. Two microliters from each well were stamped onto a 96-well polystyrene assay plate. A red blood cell suspension was made by mixing 0.2% defibrinated sheep’s blood (Hardy Diagnostics DSB100) in PBS. All assay plates received 100 μl/well of the red blood cell suspension. Plates were then incubated at 37°C overnight.

[8] = in vitro; settings: human, normal human serum diluted in water
Method: The supernatant was warmed to 37°C in a water bath. Twenty microliters of each test article were placed in a 2.0 ml round bottom microfuge tube. Two milliliters of diluted NHS were added to each tube, which was immediately vortexed, followed by transfer of 200 μl to a fresh microfuge tube placed at 37°C in a rotating rack.
Twenty microliters of each test article at 10 mg/ml were placed in a 2.0 mL round-bottomed microfuge tube. […] The tubes were immediately vortexed, and 200 μl were transferred to a fresh microfuge tube with 40 μl of 1% trichloroacetic acid (TCA). Assay tubes were placed at 37°C in a rotating rack. […] Supernatant from each tube was collected and frozen at -20°C for analysis. Mass spectrometry was used to quantify the percentage of test substance still intact.

[9] = system: P. aeruginosa ATCC 27853 and P. aeruginosa ATCC 39324; settings: two ATCC strains of P. aeruginosa, CLSI
Method: as §1

[10] = system: P. aeruginosa BAA-2110; assay: Killing assay; type: cell-based, Pseudomonas aeruginosa; settings: third-generation cephalosporin-resistant strain; PBS + 1% BSA, 37°C, 90 minutes
Method: (§3) Overnight plates were used to seed 30 ml cultures of growth media in 250 ml vented flasks. Cultures were grown aerobically at 37°C with shaking at 150 rpm. Growth was monitored at A600, and bacterial cells were harvested at mid-log growth. Ten milliliters of culture were pelleted at 4000 x g for 10 minutes and washed once with PBS + 1% BSA (PBSA) prior to resuspension in 2 ml of PBSA. The concentrated culture was used to seed 6 ml tubes of PBSA to an OD giving a concentration of 1 x 10^8 cells/ml. Cultures were diluted to 1 x10^4 cells/ml in PBSA. Test substances were diluted in PBSA, and 50 μL per concentration tested were loaded into a 96-well polypropylene microtiter plate. Fifty microliters of diluted culture were added to all test wells and all no-compound control wells. Plates were shaken and then incubated at 37°C for 90 minutes without shaking. Ten microliters from each assay well were plated onto agar plates and incubated at 37°C overnight. Percent killing was determined by the CFU for test wells vs. the CFU for no-compound control wells.

[11] = system: P. aeruginosa; assay: Killing assay, strains not itemised; type: cell-based, Pseudomonas aeruginosa; settings: P. aeruginosa ATCC strains; 1 x10^4 cells/ml in PBS + 1% BSA, 37°C, 90 minutes, CFU plating; EC50 = lowest concentration causing > 50% colony reduction
Method: as §3

[12] = molar equivalent of the MIC, unit not given

SMILES | Cytotox CC50 [1] | MIC S. aureus 29213 [2] | MIC S. aureus 29213, molar equivalents (number in parentheses) [2, 12] | MIC E. coli ATCC 25922 [3] | MIC E. coli ATCC 25922, molar equivalents (number in parentheses) [3, 12] | MIC P. aeruginosa ATCC 39324 [4] | MIC P. aeruginosa ATCC 39324, molar equivalents (number in parentheses) [4, 12] | MIC P. aeruginosa ATCC 27853 [5] | MIC P. aeruginosa ATCC 27853, molar equivalents (number in parentheses) [5, 12] | Human Serum hsMIC/MIC [6] | cytotoxic activity ([1]; mammalian cells / 293T) | hemolytic activity [7] | half-life at 0.099 mg/ml [8] | cytotoxicity against 293T relative to the MIC [1] | MIC in an MIC assay [9] | EC50 killing assay, BAA-2110 [10] | EC50 in the killing assay [11]
CC(C)(O/N=C(\C(=O)N[C@@H]1C(=O)N2C(C(=O)[O-])=C(C[n+]3ccccc3)CS[C@H]12)c1csc(N)n1)C(=O)O [Ceftazadime, reference compound] | 550 µg/mL | 4 µg/mL (≈ 7.32 µM) | 7.3 | 0.25 µg/mL (≈ 0.457 µM) | 0.5 | 1 µg/mL (≈ 1.83 µM) | 1.8 | 1 µg/mL (≈ 1.83 µM) | 1.8 | 1 | – | – | – | – | – | – | –
CC[C@@H](C)[C@@H](NC(=O)[C@H](NC(=O)[C@@H](CCCNC(=N)N)NC(=O)[C@H]1CCCN1C(=O)[C@@H](CCCCN)NC(=O)[C@@H](CCCCN)NC(=O)[C@@H](Cc1ccccc1)NC(=O)[C@@H](Cc1ccccc1)NC(=O)[C@@H](CCC(=O)O)NC(=O)[C@@H](CCCCN)NC(=O)[C@@H](C)NC(=O)[C@@H](CCCNC(=N)N)NC(=O)[C@@H](CCCCN)NC(=O)[C@@H](CCCCN)NC(=O)[C@H](NC(=O)[C@@H](CO)NC(=O)[C@@H](CCCCN)NC(=O)[C@@H](CCCCN)NC(=O)[C@@H](CC(C)C)NC(=O)[C@@H](CCCCN)NC(=O)[C@@H](CCCNC(=N)N)NC(=O)[C@@H](Cc1ccccc1)NC(=O)[C@@H](Cc1ccccc1)NC(=O)[C@@H](CCCCN)NC(=O)CNC(=O)CNC(=O)CN)C(C)C)C(C)C)C(=O)NCC(=O)N[C@@H](C(=O)N[C@H](CO)C(=O)N[C@@H](C(=O)N1CCC[C@@H]1C(=O)N[C@H](Cc1ccccc1)C(=O)O)[C@H](C)CC)C(C)C [D297] (HELM PEPTIDE1{G.G.G.[dK].[dF].[dF].[dR].[dK].[dL].[dK].[dK].[dS].[dV].[dK].[dK].[dR].[dA].[dK].[dE].[dF].[dF].[dK].[dK].[dP].[dR].[dV].[dI].G.[dV].[dS].[dI].[dP].[dF]}$$$$V2.0) | – | – | – | – | – | – | – | – | – | – | low | low | – | – | – | – | –
CSCC[C@H](NC(=O)[C@H](CO)NC(=O)[C@H](C)NC(=O)[C@H](C)NC(=O)[C@H](C)NC(=O)[C@H](C)NC(=O)[C@H](C)NC(=O)[C@H](C)NC(=O)[C@H](C)NC(=O)[C@H](CC(N)=O)NC(=O)[C@H](C)NC(=O)[C@H](C)NC(=O)[C@@H](NC(=O)[C@H](CC(C)C)NC(=O)[C@H](C)NC(=O)[C@H](C)NC(=O)[C@H](C)NC(=O)[C@H](C)NC(=O)[C@H](C)NC(=O)[C@H](C)NC(=O)[C@H](CC(=O)O)NC(=O)[C@H](CO)NC(=O)[C@H](C)NC(=O)[C@@H](NC(=O)[C@H](Cc1c[nH]cn1)NC(=O)CNC(=O)CNC(=O)CN)[C@@H](C)O)[C@@H](C)O)C(=O)N[C@@H](C)C(=O)O [P292] (H-GGGHTASDAAAAAALTAANAAAAAAASMA-OH) | 250 µg/mL | > 128 µg/mL | – | > 128 µg/mL | – | > 128 µg/mL | – | > 128 µg/mL | – | – | – | – | – | – | – | – | –
CC[C@H](C)[C@H](NC(=O)[C@@H](NC(=O)[C@H](CCCNC(=N)N)NC(=O)[C@@H]1CCCN1C(=O)[C@H](CCCCN)NC(=O)[C@H](CCCCN)NC(=O)[C@H](Cc1ccccc1)NC(=O)[C@H](Cc1ccccc1)NC(=O)[C@H](CCC(=O)O)NC(=O)[C@H](CCCCN)NC(=O)[C@H](C)NC(=O)[C@H](CCCNC(=N)N)NC(=O)[C@H](CCCCN)NC(=O)[C@H](CCCCN)NC(=O)[C@@H](NC(=O)[C@H](CO)NC(=O)[C@H](CCCCN)NC(=O)[C@H](CCCCN)NC(=O)[C@H](CC(C)C)NC(=O)[C@H](CCCCN)NC(=O)[C@H](CCCNC(=N)N)NC(=O)[C@H](Cc1ccccc1)NC(=O)[C@H](Cc1ccccc1)NC(=O)[C@H](CCCCN)NC(=O)CNC(=O)CNC(=O)CN)C(C)C)C(C)C)C(=O)NCC(=O)N[C@H](C(=O)N[C@@H](CO)C(=O)N[C@H](C(=O)N1CCC[C@H]1C(=O)N[C@@H](Cc1ccccc1)C(=O)O)[C@@H](C)CC)C(C)C [P297] (H-GGGKFFRKLKKSVKKRAKEFFKKPRVIGVSIPF-OH) | 780 µg/mL | – | – | – | – | 2 µg/mL (≈ 0.525 µM) | – | 4 µg/mL (≈ 1.05 µM) | – | – | – | – | ~20 min | approximately 200 fold | 2 to 4 µg/mL | 0.14 to 0.28 µg/mL | 0.14 to 0.28 µg/mL
